pKi: −log10 of the molar value.
Target: Melanin-concentrating hormone receptor 1 (Homo sapiens, UniProt Q99705)
Experiment: biochemical
Type: cell-based, HEK293
Description: Binding affinity towards the human MCH-R1 receptor by displacing [125I]Tyr13]-MCH radioligand in HEK293 cells, Data is average of 3 or more independent measurements

Chain of Melanin-concentrating hormone receptor 1 (Q99705 whole entry): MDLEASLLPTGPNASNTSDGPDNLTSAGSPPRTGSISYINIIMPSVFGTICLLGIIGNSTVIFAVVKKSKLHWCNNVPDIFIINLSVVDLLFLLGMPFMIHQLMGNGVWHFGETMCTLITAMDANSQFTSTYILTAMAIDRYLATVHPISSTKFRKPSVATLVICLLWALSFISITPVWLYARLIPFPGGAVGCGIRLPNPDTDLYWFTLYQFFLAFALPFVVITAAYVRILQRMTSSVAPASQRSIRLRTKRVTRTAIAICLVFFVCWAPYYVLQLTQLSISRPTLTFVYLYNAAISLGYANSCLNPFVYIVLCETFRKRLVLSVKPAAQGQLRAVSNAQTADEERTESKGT

Row | SMILES | pKi
1 | CN1CC[C@H](N(C)C(=O)N2CC[C@@H](N(C)C(=O)c3ccc(-c4ccc(C(F)(F)F)cc4)s3)C2)C1 | 6.72
2 | CN1CC[C@@H](N(C)C(=O)N2CC[C@H](N(C)C(=O)c3ccc(-c4ccc(Cl)cc4Cl)s3)C2)C1 | 8.52
3 | CCc1ccc(-c2ccc(C(=O)N(C)[C@H]3CCN(C(=O)N(C)[C@@H]4CCN(C)C4)C3)s2)cc1 | 9.00
4 | COc1cccc(-c2ccc(C(=O)N(C)[C@H]3CCN(C(=O)N(C)[C@@H]4CCN(C)C4)C3)s2)c1 | 6.05
5 | CN1CC[C@@H](N(C)C(=O)N2CC[C@H](N(C)C(=O)c3ccc(-c4cccc(C(F)(F)F)c4)s3)C2)C1 | 5.74
6 | Cc1ccc(-c2ccc(C(=O)N(C)[C@H]3CCN(C(=O)N(C)[C@@H]4CCN(C)C4)C3)s2)c(C)c1 | 8.52
7 | Cc1cccc(C)c1-c1ccc(C(=O)N(C)[C@H]2CCN(C(=O)N(C)[C@@H]3CCN(C)C3)C2)s1 | 6.51
8 | Cc1cc(Cl)ccc1-c1ccc(C(=O)N(C)[C@H]2CCN(C(=O)N(C)[C@@H]3CCN(C)C3)C2)s1 | 8.52
9 | CN1CC[C@@H](N(C)C(=O)N2CC[C@H](N(C)C(=O)c3ccc(-c4ccc(Cl)cc4)s3)C2)C1 | 8.70
10 | COc1ccc(-c2ccc(C(=O)N(C)[C@H]3CCN(C(=O)N(C)[C@@H]4CCN(C)C4)C3)s2)c(C)c1 | 8.52
11 | CC(C)Oc1ccc(-c2ccc(C(=O)N(C)[C@H]3CCN(C(=O)N(C)[C@@H]4CCN(C)C4)C3)s2)cc1 | 5.48
12 | CN1CC[C@@H](N(C)C(=O)N2CC[C@H](N(C)C(=O)c3ccc(-c4ccccc4Cl)s3)C2)C1 | 8.00
13 | Cc1ccc(-c2ccc(C(=O)N(C)[C@H]3CCN(C(=O)N(C)[C@@H]4CCN(C)C4)C3)s2)cc1 | 8.52
14 | CN1CC[C@@H](N(C)C(=O)N2CC[C@H](N(C)C(=O)c3ccc(-c4ccc(C(F)(F)F)cc4)s3)C2)C1 | 8.70
15 | CN1CC[C@@H](N(C)C(=O)N2CC[C@H](N(C)C(=O)c3ccc(-c4ccc(Cl)cc4)cc3)C2)C1 | 8.70
16 | CN1CC[C@@H](N(C)C(=O)N2CC[C@H](N(C)C(=O)c3ccc(-c4ccc(S(C)(=O)=O)cc4)s3)C2)C1 | 5.22
17 | CC(C)c1ccc(-c2ccc(C(=O)N(C)[C@H]3CCN(C(=O)N(C)[C@@H]4CCN(C)C4)C3)s2)cc1 | 8.30

Row | SMILES | pKi
18 | Cc1ccc(-c2ccc(C(=O)N(C)[C@H]3CCN(C(=O)N(C)[C@@H]4CCN(C)C4)C3)s2)c(Cl)c1 | 9.00
19 | CN1CC[C@@H](N(C)C(=O)N2CC[C@H](N(C)C(=O)c3ccc(-c4ccc(O)cc4)s3)C2)C1 | < 5.00
20 | CN1CC[C@@H](N(C)C(=O)N2CC[C@H](N(C)C(=O)c3ccc(-c4ccc(OC(F)(F)F)cc4)s3)C2)C1 | 8.40
21 | CCOc1ccc(-c2ccc(C(=O)N(C)[C@H]3CCN(C(=O)N(C)[C@@H]4CCN(C)C4)C3)s2)c(Cl)c1 | 8.70
22 | CN1CC[C@@H](N(C)C(=O)N2CC[C@H](N(C)C(=O)c3ccc(-c4ccc(N(C)C)cc4)s3)C2)C1 | 8.15
23 | CN1CC[C@@H](N(C)C(=O)N2CC[C@@H](N(C)C(=O)c3ccc(-c4ccc(C(F)(F)F)cc4)s3)C2)C1 | 6.82
24 | CN1CC[C@H](N(C)C(=O)N2CC[C@H](N(C)C(=O)c3ccc(-c4ccc(C(F)(F)F)cc4)s3)C2)C1 | 7.85
25 | COc1ccc(-c2ccc(C(=O)N(C)[C@H]3CCN(C(=O)N(C)[C@@H]4CCN(C)C4)C3)cc2)c(C)c1 | 7.80
26 | CN1CC[C@@H](N(C)C(=O)N2CC[C@H](N(C)C(=O)c3ccc(-c4cccc(Cl)c4)s3)C2)C1 | 6.49
27 | COc1ccccc1-c1ccc(C(=O)N(C)[C@H]2CCN(C(=O)N(C)[C@@H]3CCN(C)C3)C2)s1 | 5.47
28 | Cc1ccccc1-c1ccc(C(=O)N(C)[C@H]2CCN(C(=O)N(C)[C@@H]3CCN(C)C3)C2)s1 | 7.72
29 | COc1ccc(-c2ccc(C(=O)N(C)[C@H]3CCN(C(=O)N(C)[C@@H]4CCN(C)C4)C3)cc2)cc1 | 8.30
30 | CN1CC[C@@H](N(C)C(=O)N2CC[C@H](N(C)C(=O)c3ccc(-c4ccc(C#N)cc4)s3)C2)C1 | 5.62
31 | CCOc1ccc(-c2ccc(C(=O)N(C)[C@H]3CCN(C(=O)N(C)[C@@H]4CCN(C)C4)C3)s2)cc1 | 7.20
32 | CN1CC[C@@H](N(C)C(=O)N2CC[C@H](N(C)C(=O)c3ccc(-c4ccc(F)cc4)s3)C2)C1 | 7.43
33 | CN1CC[C@@H](N(C)C(=O)N2CC[C@H](N(C)C(=O)c3ccc(-c4ccccc4C(F)(F)F)s3)C2)C1 | 7.21
34 | COc1ccc(-c2ccc(C(=O)N(C)[C@H]3CCN(C(=O)N(C)[C@@H]4CCN(C)C4)C3)s2)cc1 | 8.40

Reference: ChEMBL document CHEMBL1140258, “Synthesis and structure-activity relationships of biarylcarboxamide bis-aminopyrrolidine urea derived small-molecule antagonists of the melanin-concentrating hormone receptor-1 (MCH-R1)” (Bioorg Med Chem Lett, 2005)
